From patent publication US8119589B2, “Modulation of CD4+ T cell responses by a tick saliva protein, Salp15 and polypeptides derived therefrom” (University of North Carolina at Charlotte, priority 2004, dated 2012)
Where a SMILES comes first, the peptide text is derived from it.

Legend:
CD4+ T cells [1] = experiment: Lipid raft redistribution (CTB594 staining, receptor capping) in activated CD4+ T cells; assay type: cell-based, mouse; details: pretreatment with peptide 0.2 μg/mL; anti-CD3/CD28 20 min
Experimental: (§1) Naïve CD4+ T cells from C3H/HeN, Balb/c, and B10.BR mice were purified as previously described (Anguita et al., 2002). CD4+ T cells were preincubated in Click's modified Bruff's Medium (Sigma Chemical Co., St. Louis, Mo., U.S.A.) for 10 minutes at 37° C. with and without Salp15 (50 μg/mL) and stimulated for 20 min or the indicated times at 37° C. with 10 μg/mL of anti-CD3ε, 1 μg/mL of anti-CD28, and 10 μg/mL of anti-armenian and syrian hamster IgG (BD Biosciences Pharmingen, San Jose, Calif., U.S.A.). Jurkat (E6-1) cells were stimulated using 5 μg/mL of OKT3 mAb (eBioscience, San Diego, Calif., U.S.A.) and 1 μg/mL of anti-human CD28 cross linked with 5 μg/mL anti-mouse IgG for the indicated times.
For the visualization of lipid rafts, phospho-tyrosine, and cytoskeleton reorganization, CD4^+, CD8^+ or Jurkat cells were cytospun for 10 minutes at 1000 RPM onto positively charged microslides (Fisher Scientific, Hampton, N.H., U.S.A.). The cells were fixed with 3.7% paraformaldehyde (Sigma Chemical Co.) for 15 minutes and stained with CTB594 (Molecular Probes, Eugene, Oreg., U.S.A.), AlexaFluor488 labeled phalloidin (Molecular Probes) or (1:50) biotin-conjugated anti-p-Tyr (PY99) followed by Streptavidin-AlexaFluor594 (1:100, Molecular Probes). For p-LAT and p-PLCγ1 staining, fixed cells were treated with PBS containing 0.1% Triton-X 100 and 100 mM glycine for 15 min at room temperature and stained using rabbit p-LAT (Tyr^191) or rabbit anti-p-PLCγ1 (Tyr^783) probed with anti-rabbit IgG488 (Molecular Probes).
For receptor capping studies, mouse primary B and CD11^+ cells were purified by positive selection using biotin anti-mouse CD45R/B220 clone RA3-6B2 and biotin anti-mouse CD11b clone M1/70 (BD Biosciences Pharmingen) respectively, followed by incubation with magnetic microbeads. The cells were analyzed for receptor capping using 25 μg/mL anti-mouse IgM and 25 μg/mL anti-mouse CD16/CD32 respectively, cross-linked with 25 μg/mL of anti-rat IgG594 for 10 min in the presence or absence of 50 μg/mL of Salp15. […]

sCD4 = target: T1, sCD4 (Homo sapiens, UniProt P01730); experiment: Microtiter binding of sCD4-HRP to plate-bound Salp15 and synthetic peptides
T1 construct: the extracellular four domains of CD4 (sCD4); purchased Research Diagnostics Inc., Flanders, N.J., U.S.A
Experimental: Purified sCD4 was coated overnight at 4° C. at the indicated concentrations in 0.1M sodium carbonate buffer (pH 9.5) in 96 well plates. Equimolar amounts of lysozyme were used as a non-specific control. The wells were washed, blocked with 10% FCS/PBS for 1 hr at R.T., and incubated with Salp15 (0.4 μM) for 2 hr at 37° C. Salp15 binding was detected by incubation with horseradish peroxidase (HRP)-conjugated anti-His antibody for 1 hr followed by microwell peroxidase substrate (KPL). The reaction was stopped by adding TMB stop solution (KPL). Chemically synthesized overlapping peptides of Salp15 were purchased from GenScript Corporation (Piscataway, N.J., U.S.A). To study the binding of Salp15 and peptides to sCD4, Salp15 (5 μg) and different peptides (0.5 μg) were coated. The wells were washed and blocked prior to incubation with sCD4-HRP (Research Diagnostics Inc., Flanders, N.J., U.S.A.). For competition assays, indicated concentrations of Salp15 or P11 were added to sCD4-HRP and incubated with plate bound P11 (0.1 μg). To estimate the effect of dithiothreitol (DTT) treatment of Salp15 on binding to sCD4, 0.5 μM Salp15 was treated with 10 mM DTT overnight and immobilized onto microtiter plate followed by blocking and incubation with sCD4-HRP.
Dissociation constants were determined by non-linear curve fit. The results are expressed as the mean±S.E. of 3 to 5 individual experiments.

CD4+ T cells [2] = experiment: IL-2 production (capture ELISA) by CD4+ T cells activated with plate bound anti-CD3 and soluble anti-CD28; assay type: cell-based, mouse; details: for Inhibition of CD4+ T cell IL-2 production: pretreatment with peptide, 24 hr of activation
Experimental: FIG. 6D is a graph showing purified CD4^+ T cells were activated in vitro with plate bound anti-CD3 and soluble anti-CD28 in the absence or presence of Salp15 (50 μg/mL), P11, or P8. The supernatants were analyzed at 24 hr of activation for IL-2 levels by capture ELISA.
as §1

Molecule | Lipid rafts clustering in response to T cell activation (CD4+ T cells [1]) | Binding of overlapping synthetic peptides to sCD4 (sCD4; peptides 0.5 μg coated, sCD4-HRP) | Activity for modulating naïve CD4+ T cell activation among the tested polypeptide fragments (CD4+ T cells [2]) | Inhibition of CD4+ T cell IL-2 production (CD4+ T cells [2]) | Saturable binding to sCD4 with increasing concentrations (sCD4)
CC[C@H](C)[C@H](NC(=O)[C@H](Cc1c[nH]cn1)NC(=O)CNC(=O)[C@@H](NC(=O)[C@H](CS)NC(=O)[C@H](CCCCN)NC(=O)[C@H](CC(N)=O)NC(=O)[C@H](CCCCN)NC(=O)[C@H](CCC(=O)O)NC(=O)[C@H](C)NC(=O)[C@H](CS)NC(=O)[C@@H](NC(=O)[C@H](CCC(N)=O)NC(=O)CNC(=O)[C@H](CC(N)=O)NC(=O)[C@@H]1CCCN1C(=O)CN)[C@@H](C)O)C(C)C)C(=O)N1CCC[C@H]1C(=O)NCC(=O)N[C@@H](CS)C(=O)O [Peptide P11] (H-GPNGQTCAEKNKCVGHIPGC-OH; N-terminus and C-terminus assumed) | reduction | showed binding | highest activity | dose dependent inhibition | –
EKNKCVGHIPGC (listed as Ixodes scapularis) [Peptide P11-2] | – | – | highest activity | – | saturable binding
NCTFLCKHGNDVNVTLNLPE (listed as Ixodes scapularis) [Peptide P8] | did not show any effect | – | – | did not exert any inhibition | no binding
